Laboratory results from patent US20080262071A1 (priority 2004, published 2008).
Where two headings read alike, the source gives them in different places.

Assays:
[1] = Single blind pilot study of pindolol in PMS (COPE diary, CGI); type: in vivo, human
From the text: A single blind pilot study to evaluate the safety, efficacy and tolerability of pindolol in PMS was initiated at one study centre. The trial objectives were to: […] […] Twenty subjects were recruited who met the criteria for inclusion in the study. After screening subjects underwent a one month assessment period with prospective diaries (COPE, Calendar of Premenstrual Events). By calculating the subjects COPE scores in the follicular and luteal phases, a diagnosis of late luteal phase dysphoric disorder could be made. All subjects then entered the single-blind placebo treatment period and the subjects' outcome at the end of this cycle acted as their baseline assessment. Subjects were then treated with pindolol for the next three cycles and assessed using the COPE. During this three month period, subjects may have a sequential increase in dose at monthly intervals from 15 to 25 mg/day to optimize response. Provision was made for dose decreases in case of tolerability concerns. Subjects were aware that they would receive three months of active and one month of placebo but were unaware of when the placebo was administered. […] Secondary efficacy measures included; mean change from the end of the placebo period in luteal phase total COPE score; mean change from end of the placebo period in luteal phase physical COPE symptoms; mean change from the end of the luteal phase behavioral symptoms; mean change from end of the placebo period in follicular phase total COPE score; CGI improvement score at each of the three menstrual cycles.

[2] = Blood pressure after single oral dose in healthy male volunteers; type: in vivo, human; conditions: healthy subjects
Experimental: Ten healthy male volunteers were tested on two separate occasions one week apart. On both occasions their blood pressure was measured at baseline.

5HT1a receptors = target: T1, 5HT1a receptors (Homo sapiens, UniProt P08908); conditions: cited from earlier work
T1 construct: host or cells: human subjects, in vivo PET
T1 sequence (P08908 1-422): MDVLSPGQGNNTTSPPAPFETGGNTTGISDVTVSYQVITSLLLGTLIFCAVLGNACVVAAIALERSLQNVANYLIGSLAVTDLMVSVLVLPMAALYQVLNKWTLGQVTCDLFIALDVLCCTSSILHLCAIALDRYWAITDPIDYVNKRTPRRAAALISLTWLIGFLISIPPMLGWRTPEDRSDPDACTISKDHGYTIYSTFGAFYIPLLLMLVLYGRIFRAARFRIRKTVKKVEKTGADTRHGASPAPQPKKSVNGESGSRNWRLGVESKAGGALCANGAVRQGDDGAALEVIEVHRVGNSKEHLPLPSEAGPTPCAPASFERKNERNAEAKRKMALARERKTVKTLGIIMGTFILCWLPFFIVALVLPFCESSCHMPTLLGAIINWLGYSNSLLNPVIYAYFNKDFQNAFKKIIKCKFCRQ

[3] = man, after administration of the racemate; cited from earlier work
[4] = meta-analysis of 14 double-blind trials; cited from earlier work
[5] = luteal phase administration; cited from earlier work
[6] = Case treatment of a person with premenstrual dysphoric disorder, daily symptom diary; type: in vivo, human; conditions: month 2, 5 mg three times daily throughout luteal phase
From the text: Patient was a person with a long history of premenstrual dysphoric disorder.
Throughout each cycle, a daily diary was used to document symptoms.

[7] = PMS subjects; cited from earlier work
[8] = PMS subjects, three cycles of pindolol

## CC(C)NCC(O)COc1cccc2[nH]ccc12 (racemic) [pindolol]
[1]; 15 to 25 mg/day
  tolerability: very well tolerated
  withdrawals for unacceptable reductions in blood pressure: no withdrawals
[1]; [8]
  CGI improvement: improvement in CGI
  behavioral COPE scores: Particularly significant decreases
[1]; all patients treated with active drug, vs end of placebo period
  total COPE score: decrease in the reduction of total COPE score
[1]; patients on doses of 15 mg and above
  total COPE score: Significant decreases
[2]; 10 mg orally
  blood pressure: definite drop in blood pressure
[2]; 10 mg
  diastolic blood pressure: definite drops in diastolic blood pressure
5HT1a receptors; 2.5 mg
  occupancy of 5HT1a receptors: did not generate any significant occupancy
5HT1a receptors; 5.0 mg
  occupancy of 5HT1a receptors: 19%
[3]
  differences between (−) and (+) pindolol in AUC, Cmax and t1/2 hrs: minor differences

## CC(=O)[C@H]1CC[C@H]2[C@@H]3CCC4=CC(=O)CC[C@]4(C)[C@H]3CC[C@]12C [Progesterone]
[4]
  difference from placebo treatment in PMS: did not find a clinically significant difference

## CNCCC(Oc1ccc(C(F)(F)F)cc1)c1ccccc1 (stereo not shown) [fluoxetine]
[5]
  efficacy in PMDD: some efficacy

## S-(−)-pindolol [(−) pindolol]
[6]
  mood and anxiety (daily diary): helped improve mood and reduce anxiety

## CN[C@H]1CC[C@@H](c2ccc(Cl)c(Cl)c2)c2ccccc21 [sertraline]
[5]
  efficacy in PMDD: some efficacy

## CC(C)NCC(O)COc1ccc(CC(N)=O)cc1 (stereo not shown) [atenolol]
[7]
  several other scales: significant improvement was not found
